Literature values in patent US20130146496A1, “SOLID PHARMACEUTICAL FORMULATIONS OF RAMIPRIL AND AMLODIPINE BESYLATE, AND THEIR PREPARATION” (priority 2010, published 2013).

What was measured:
[1] = in vivo

In the case of `CCOC(=O)C1=C(COCCN)NC(C)=C(C(=O)OC)C1c1ccccc1Cl` (racemic) [Amlodipine besylate, 3-ethyl-5-methyl-(+-)-2-[(2-aminoethoxy)methyl]-4-(2-chlorophenyl)-1,4-dihydro-6-methylpyridine-3,5-dicarboxylate], the solubility in water is given as “slightly soluble” and the absolute bioavailability [1] is given as 64-90%.
